This is an account of results in patent US20090275099A1 (priority 2004, published 2009).

A word on the Kd: it is the free concentration of one partner at which half of the binding sites on the other are occupied at equilibrium, for simple one-to-one binding. Read a high Kd as lower affinity.

The subject of data set [1] is isolated rat liver mitochondria. The data set is described as follows: ROS production in isolated mitochondria (DCF oxidation). The following applies: aerobic conditions supporting state 3 respiration, slope versus control. The procedure: Male Long Evans rats are starved overnight and sacrificed by decapitation. Liver samples are homogenized in ice cold buffer A (250 mM sucrose, 10 mM Tris, 0.1 mM EGTA, pH 7.4), and nuclei and cellular debris are pelleted (10 min, 830 g, 4° C.). Mitochondria are collected by centrifugation (10 min, 15,000 g, 4° C.), and the supernatant is collected as the S15 fraction. The mitochondrial pellet is washed three times with buffer B (250 mM sucrose, 10 mM Tris, pH 7.4), and re-suspended in buffer B at 20-30 mg/mL. Mitochondria are diluted (0.5 mg/mL) in buffer C (200 mM sucrose, 10 mM Tris, pH 7.4, 1 mM KH2PO4, 10 μM EGTA, 2.5 μM rotenone, 5 mM succinate) containing 2′,7′-dichlorodihydrofluorescin diacetate (DCFH-DA, 1 μM). For state 3 measurements, ADP (2 mM) is included in the buffer, and prior to the addition of Bz-423, mitochondria are allowed to charge for 2 min. To induce state 4, oligomycin (10 μM) is added to buffer C. […] To detect effects on O2^− and delta ψm, mitochondria are incubated for 15 min at 37° C. in buffer C with vehicle, Bz-423, or CCCP containing DHE (5 μM) or DIOC6(3) (20 nM), and aliquots are removed for analysis by fluorescence microscopy.
O2^− production by Bz-423 may result from binding to a protein within mitochondria or a target in another compartment that signals mitochondria to generate ROS. […]

The next data set has as its system ATP synthesis. The data set is described as follows: cellular ATP synthesis (FIG. 15). It is filed as cell-based. The procedure: The following four compounds were exposed to cells, and ATP synthesis measured: […]
Data set [2] has as its system ornithine decarboxylase (ODC). The data set is described as follows: ODC activity in treated cells (conversion of 3H-ornithine to putrescine). It is filed as cell-based, human. The note with it: cells treated for 4 h. The procedure:
In these experiments, the conversion of ornithine to putrescine was quantified using ^3H-ornithine. For comparisons, control cells were treated with vehicle control or difluoromethyl ornithine (DFMO), a potent inhibitor of ornithine decarboxylase (like Bz-423, DFMO is a potent anti-proliferative agent). […] The reduction in ODC activity was paralleled by a decrease in ODC protein levels measured under the same conditions.
As described above, Bz-423 induced apoptosis was signaled by an ROS response that arose from MRC complex III as a result of the state 3 to 4 transition. It was next sought to determine if the ROS response, critical for apoptosis, also mediated these effects on ODC. If the ROS was required for the decrease in ODC activity, it would likewise be implicated as potentially part of the anti-proliferative response to Bz-423. To test this, Ramos cells were treated with Bz-423, DFMO, or vehicle control for 4 h. In parallel, a second group of cells was pre-incubated with MnTBAP to limit the ROS and then cultured with Bz-423, DFMO, and vehicle control.

Data set [3] has as its system panel of cells in Table 7. In words: antiproliferation of Bz-Cl against the panel of cells, 3 d. It is filed as cell-based. The following applies: after 3 d.
The next data set deals with Ramos cells. The data set is described as follows: cell culture cytotoxicity assays. It is filed as cell-based, human. The procedure:
Like most 1,4-benzodiazepines, Bz-423 binds strongly to bovine serum albumin (BSA), which reduces the effective concentration of drug free in solution. For example, in tissue culture media containing 10% (v/v) fetal bovine serum (FBS), ca. 99% of the drug is bound to BSA. Therefore, cell culture cytotoxicity assays are conducted in media with 2% FBS to reduce binding to BSA and increase the free [Bz-423]. Under these conditions, the dose response-curve is quite sharp such that there is a limited concentration range at which Bz-423 is only partly effective. Since some benzodiazepines are known to have anti-proliferative properties, the effect of Bz-423 at concentrations <ED50 were carefully analyzed and observed that in addition to inducing apoptosis, Bz-423 prevented cell growth after 3 d in culture. In these low serum conditions, the cytotoxic and anti-proliferative effects overlapped making it difficult to study each effect independently. […] While higher amounts of drug may also block proliferation, it caused apoptosis well before the effects on proliferation could be observed.
To confirm the decrease in cell number relative to control cells after 3 d of treatment is due to decreased proliferation and not cell death balanced by proliferation, in addition to cell counting, cell divisions were studied. PKH-67 is a fluorescent probe that binds irreversibly to cell membranes and upon cell division is partitioned equally between the daughter cells, making it possible to quantify cell division by flow cytometry. Ramos cells stained with PKH67 and treated with Bz-423 had fewer cell divisions at sub-cytotoxic concentrations which confirmed that the decrease in cell number was due to anti-proliferative affects and not cell death. To determine if Bz-423 induced anti-proliferation was specific to Ramos cells, cell counting and cell cycle experiments were done in other B cell lines and cell lines derived from solid tumors.

In the next data set the target is T1, human OSCP (Homo sapiens, UniProt P48047).
T1 construct: made in house; host or cells: E. coli
The data set is described as follows: OSCP binding by quenching of intrinsic protein fluorescence. The text has this:
To determine if Bz-423 indeed binds to the OSCP and the affinity of the interaction, human OSCP was overexpressed in E. coli. […] Bz-423 is the only known inhibitor of the ATPase that functions through binding to the OSCP.

T1 sequence (P48047 24-213): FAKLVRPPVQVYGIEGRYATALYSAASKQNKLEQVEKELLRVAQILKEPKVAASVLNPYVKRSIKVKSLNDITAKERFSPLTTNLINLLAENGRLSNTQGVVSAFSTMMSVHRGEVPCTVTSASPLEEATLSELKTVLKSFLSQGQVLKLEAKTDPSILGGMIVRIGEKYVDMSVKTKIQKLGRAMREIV

Take antimycin A: in data set [1], the “increase of the rate of ROS production” value is recorded as “nearly two-fold”.

With `CN1C(=O)C(c2ccccc2)NC(c2ccc(O)cc2)c2cc(Cl)ccc21` (stereo not drawn), in the data set on ATP synthesis, the “inhibition of cellular ATP synthesis” value is recorded as “did inhibit ATP synthesis”.

For `CN1C(=O)C(Cc2ccc3ccccc3c2)N=C(c2ccc(Cl)cc2)c2cc(Cl)ccc21` (stereo not drawn) [Bz-Cl], the “effect on ODC activity” value in data set [2] is recorded as “inhibited ODC activity”. In addition, in data set [3], the “effect on proliferation compared with Bz-423” value is “reduced proliferation to a similar extent as Bz-423”. The “decrease of cytotoxic activity compared to Bz-423” value with Ramos cells is approximately 80%. On human OSCP, this molecule showed a Kd of approximately 5 µM.
